For 21 compounds, EC50 and IC50 results are on record in US8431563B2 (priority 2010, dated 2013).

The term IC50 denotes the concentration that inhibits the measured activity by half.

Counter-ions that a name gives are not always drawn.

One experiment deals with T1, GKRP (Glucokinase Regulatory Protein) with human His-hepatic GK (Homo sapiens, UniProt Q14397).
T1 sequence (Q14397 1-625): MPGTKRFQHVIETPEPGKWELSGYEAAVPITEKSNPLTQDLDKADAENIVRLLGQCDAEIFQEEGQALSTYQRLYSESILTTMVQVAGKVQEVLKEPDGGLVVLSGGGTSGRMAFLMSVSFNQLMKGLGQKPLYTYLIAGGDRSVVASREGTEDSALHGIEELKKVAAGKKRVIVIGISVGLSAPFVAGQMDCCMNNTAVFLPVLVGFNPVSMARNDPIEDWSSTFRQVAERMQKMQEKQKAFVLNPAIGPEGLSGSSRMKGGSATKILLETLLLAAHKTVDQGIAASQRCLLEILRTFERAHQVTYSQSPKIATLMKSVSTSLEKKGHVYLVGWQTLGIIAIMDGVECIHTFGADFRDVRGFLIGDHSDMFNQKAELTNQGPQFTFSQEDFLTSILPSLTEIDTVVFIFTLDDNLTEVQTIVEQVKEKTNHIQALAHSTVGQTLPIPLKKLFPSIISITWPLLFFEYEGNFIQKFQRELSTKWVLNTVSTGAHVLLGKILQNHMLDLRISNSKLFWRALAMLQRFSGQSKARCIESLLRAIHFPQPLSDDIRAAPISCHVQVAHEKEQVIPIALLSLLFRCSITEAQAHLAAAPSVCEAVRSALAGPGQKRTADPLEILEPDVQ
The experiment in a line: biochemical. As to conditions: 13C-glucose-6-phosphate formation; 280 nM GKRP (10×), 30 nM GK (5×); read-out: GK-GKRP EC50 (LC MS/MS-2). The protocol:
GKRP LC MS/MS-2 Biochemical Assay
This assay is used to directly measure the formation of ^13C-glucose-6-phosphate from ^13C-glucose by LC MS/MS. Begin by preparing the following solutions: Compound Buffer (CB): 50 mM Tris, pH 7.5/4 mM MgCl2/6% DMSO/fresh 10 mM DTT from 1M frozen stock. Enzyme Buffer (EB): 50 mM Tris, pH 7.5/4 mM MgCl2/6% DMSO/fresh 0.1% BSA/fresh 0.01% Brij-35 (10% BSA and 1% Brij-35 stock). GK (Glucokinase) Working Stock (5×): Dilute human His-hepatic GK to 30 nM in EB buffer. […] After 30 minutes add 10 μl of GK Working Stock (5×). Re-seal the plate and incubate for another 30 minutes at room temperature while mixing. After the second 30 minutes, stop the reaction by the addition of 50 μl of 100% acetonitrile, seal, and mix for 5-10 minutes. Run 10 μl of this sample through the LC MS/MS (API 3200, Applied Biosystems, Carlsbad, Calif.).
`CC1CS(=O)(=O)CCN1C[C@H]1CN(S(=O)(=O)c2cccs2)CCN1c1ccc(C(C)(O)C(F)(F)F)cc1` (mixture of isomers) [Example 86, 1,1,1-trifluoro-2-(4-((2S)-2-((3-methyl-1,1-dioxido-4-thiomorpholinyl)methyl)-4-(2-thiophenylsulfonyl)-1-piperazinyl)phenyl)-2-propanol]: the EC50 worked out at 115 nM.

For `C[C@H]1COCCN1C[C@H]1CN(S(=O)(=O)c2cccs2)CCN1c1ccc(C(O)(CO)C(F)(F)F)cc1` (mixture of isomers) [Example 83, 3,3,3-trifluoro-2-(4-((2S)-2-(((3S)-3-methyl-4-morpholinyl)methyl)-4-(2-thiophenylsulfonyl)-1-piperazinyl)phenyl)-1,2-propanediol], the EC50 was 19 nM.

With `CC(C)C1C(=O)NCCN1C[C@H]1CN(S(=O)(=O)c2ccc(N)s2)CCN1c1ncc(C(O)(C(F)(F)F)C(F)(F)F)cn1` (single isomer, unassigned) [Example 184 Peak #2], the EC50 worked out at 25 nM.

The target in a further experiment is T2, interaction between glucokinase (GK) and glucokinase regulatory protein (GKRP) (Homo sapiens, UniProt Q14397).
T2 sequence (Q14397 1-625): T1 sequence (Q14397 1-625)
Nature of the experiment: biochemical. The following applies: GK-GKRP IC50 (Binding), avi-tagged GKRP, GK-fluorescein, AlphaScreen beads. Type of experiment: binding. The protocol: GK-GKRP Binding Assay Protocol
This assay is used to directly measure the interaction between glucokinase (GK) and glucokinase regulatory protein (GKRP). Begin by preparing the following solutions. Assay Buffer: 20 mM Tris, pH 7.5/0.05% BSA/1 mM DTT/1 μM sorbitol-6-phosphate. […] Combine the following reagents in a white 96-well half area plate. Pipette 14 μl of the diluted avi-tagged GKRP into each well. Add 1 μl of compound to be tested and incubate at room temperature for 20 minutes. After 20 minutes, add 5 μl of assay buffer containing 6 nM GK-fluorescein. […] Incubate in a dark room for 2 hours at room temperature. After 2 hours read the plate using an Envision plate reader (Perkin Elmer, Waltham Mass.).
On the technique in general: In Alpha technology, singlet oxygen from a donor bead excites a nearby acceptor bead.
On to `CC(O)(c1ccc(N2CCN(S(=O)(=O)c3cccs3)C[C@@H]2CNC2CC2)cc1)C(F)(F)F` (mixture of isomers) [Example 199, 2-(4-((2S)-2-((cyclopropylamino)methyl)-4-(2-thiophenylsulfonyl)-1-piperazinyl)phenyl)-1,1,1-trifluoro-2-propanol], for which the IC50 worked out at 713 nM.

In the case of `NCC#Cc1cc(C(O)(C(F)(F)F)C(F)(F)F)ccc1N1CCN(S(=O)(=O)c2cccs2)CC1` [Example 159, 2-(3-(3-amino-1-propyn-1-yl)-4-(4-(2-thiophenylsulfonyl)-1-piperazinyl)phenyl)-1,1,1,3,3,3-hexafluoro-2-propanol trifluoroacetate], the IC50 stood at 1920 nM.

Staying with this experiment, now noted: avi-tagged GKRP, GK-fluorescein, AlphaScreen beads; read-out: GK-GKRP IC50 (Binding).
Consider `CC1CS(=O)(=O)CCN1C[C@H]1CN(S(=O)(=O)c2cccs2)CCN1c1ccc(C(C)(O)C(F)(F)F)cc1` (mixture of isomers) [Example 86, 1,1,1-trifluoro-2-(4-((2S)-2-((3-methyl-1,1-dioxido-4-thiomorpholinyl)methyl)-4-(2-thiophenylsulfonyl)-1-piperazinyl)phenyl)-2-propanol], for which the IC50 was 61 nM.

Consider `CCC(O)C#Cc1cc(C(O)(C(F)(F)F)C(F)(F)F)ccc1N1CCC(S(=O)(=O)c2ccccc2)CC1` (racemic) [Example 162, 1-(2-(4-(phenylsulfonyl)-1-piperidinyl)-5-(2,2,2-trifluoro-1-hydroxy-1-(trifluoromethyl)ethyl)phenyl)-1-pentyn-3-ol], for which the IC50 is 5180 nM.

For `C[C@H]1CN(S(=O)(=O)c2cnc(N)s2)CCN1c1ncc(C(O)(C(F)(F)F)C(F)(F)F)cn1` [Example 147, 2-(2-((2S)-4-((2-amino-1,3-thiazol-5-yl)sulfonyl)-2-methyl-1-piperazinyl)-5-pyrimidinyl)-1,1,1,3,3,3-hexafluoro-2-propanol], the IC50 came out at 998 nM.

As for `C[C@H]1COCCN1C[C@H]1CN(S(=O)(=O)c2cccs2)CCN1c1ccc(C(O)(C(F)(F)F)C(F)(F)F)cc1` [Example 132, 1,1,1,3,3,3-hexafluoro-2-(4-((2S)-2-(((3S)-3-methyl-4-morpholinyl)methyl)-4-(2-thiophenylsulfonyl)-1-piperazinyl)phenyl)-2-propanol], the IC50 stood at 6 nM.

As to `CC(O)(c1ccc(N2CCN(S(=O)(=O)c3cccs3)C[C@@H]2C[S+]([O-])c2cccc(F)c2)cc1)C(F)(F)F` (single isomer, unassigned) [Example 189 Peak#2], the half-maximal inhibitory concentration (IC50) is 717 nM.

For `CC(C)C(O)C#Cc1cc(C(O)(C(F)(F)F)C(F)(F)F)ccc1N1CCN(S(=O)(=O)c2cccs2)CC1` (racemic) [Example 156, 4-methyl-1-(2-(4-(2-thiophenylsulfonyl)-1-piperazinyl)-5-(2,2,2-trifluoro-1-hydroxy-1-(trifluoromethyl)ethyl)phenyl)-1-pentyn-3-ol], the IC50 was 2860 nM.

Turning to `CC(O)(c1ccc(N2CCN(S(=O)(=O)c3cccs3)C[C@@H]2CN(C2CCC2)S(=O)(=O)c2cccnc2)cc1)C(F)(F)F` (mixture of isomers) [Example 213, N-cyclobutyl-N-(((2R)-4-(2-thiophenylsulfonyl)-1-(4-(2,2,2-trifluoro-1-hydroxy-1-methylethyl)phenyl)-2-piperazinyl)methyl)-3-pyridinesulfonamide], the IC50 is 928 nM.

`CC(O)(c1ccc(N2CCN(S(=O)(=O)c3cccs3)C[C@@H]2C[S+]([O-])c2cccc(F)c2)cc1)C(F)(F)F` (single isomer, unassigned) [Example 189 Peak#3]: the IC50 was determined as 535 nM.

For `CC(C)(C)OC(=O)NCC#Cc1cc(C(O)(C(F)(F)F)C(F)(F)F)ccc1N1CCN(S(=O)(=O)c2cccs2)CC1` [Example 158, tert-butyl (3-(2-(4-(2-thiophenylsulfonyl)-1-piperazinyl)-5-(2,2,2-trifluoro-1-hydroxy-1-(trifluoromethyl)ethyl)phenyl)-2-propyn-1-yl)carbamate], the IC50 came to 695 nM.

For `CC(O)(c1ccc(N2CCN(S(=O)(=O)c3cccs3)C[C@@H]2CN2CCNC(=O)C2)cc1)C(F)(F)F` (mixture of isomers) [Example 179, 4-(((2S)-4-(2-thiophensulfonyl)-1-(4-(2,2,2-trifluoro-1-hydroxy-1-methylethyl)phenyl)-2-piperazinyl)methyl)-2-piperazinone], the IC50 is 542 nM.

On to `CCC(O)C#Cc1cc(C(O)(C(F)(F)F)C(F)(F)F)ccc1N1CCN(S(=O)(=O)c2cccs2)CC1` (racemic) [Example 154, 1-(2-(4-(2-thiophenylsulfonyl)-1-piperazinyl)-5-(2,2,2-trifluoro-1-hydroxy-1-(trifluoromethyl)ethyl)phenyl)-1-pentyn-3-ol], for which the IC50 is 1060 nM.

As to `COC(C#Cc1cc(C(O)(C(F)(F)F)C(F)(F)F)ccc1N1CCN(S(=O)(=O)c2cccs2)CC1)C(C)C` (racemic) [Example 157, 1,1,1,3,3,3-hexafluoro-2-(3-(3-methoxy-4-methyl-1-pentyn-1-yl)-4-(4-(2-thiophenylsulfonyl)-1-piperazinyl)phenyl)-2-propanol], the IC50 worked out at 658 nM.

Regarding `O=S(=O)(c1cccs1)N1CCN(c2ccc(C(O)(C(F)(F)F)C(F)(F)F)cc2)C(Cc2ccc(O)cc2)C1` (racemic) [Example 177, 4-((1-(4-(1,1,1,3,3,3-hexafluoro-2-hydroxypropan-2-yl)phenyl)-4-(thiophen-2-ylsulfonyl)piperazin-2-yl)methyl)phenol], the IC50 was 786 nM.

As for `CN(Cc1cn(C)cn1)C[C@H]1CN(S(=O)(=O)c2cccs2)CCN1c1ccc(C(C)(O)C(F)(F)F)cc1` (mixture of isomers) [Example 121, 1,1,1-trifluoro-2-(4-((2S)-2-((methyl((1-methyl-1H-imidazol-4-yl)methyl)amino)methyl)-4-(2-thiophenylsulfonyl)-1-piperazinyl)phenyl)-2-propanol], the IC50 was 521 nM.

As to `COc1ccc(CC2CN(S(=O)(=O)c3cccs3)CCN2c2ccc(C(O)(C(F)(F)F)C(F)(F)F)cc2)cc1` (racemic) [Example 175, 1,1,1,3,3,3-hexafluoro-2-(4-(2-(4-methoxybenzyl)-4-(thiophen-2-ylsulfonyl)piperazin-1-yl)phenyl)-2-propanol], the IC50 came out at 2870 nM.

`CC(c1ccccc1)N(C[C@H]1CN(S(=O)(=O)c2cccs2)CCN1c1ccc(C(C)(O)C(F)(F)F)cc1)S(C)(=O)=O` (mixture of isomers) [Example 222, N-(1-phenylethyl)-N-(((2R)-4-(2-thiophenylsulfonyl)-1-(4-(2,2,2-trifluoro-1-hydroxy-1-methylethyl)phenyl)-2-piperazinyl)methyl)methanesulfonamide]: the IC50 is 671 nM.

As to `COc1cccc(CC2CN(S(=O)(=O)c3cccs3)CCN2c2ccc(C(O)(C(F)(F)F)C(F)(F)F)cc2)c1` (racemic) [Example 173, 1,1,1,3,3,3-hexafluoro-2-(4-(2-(3-methoxybenzyl)-4-(thiophen-2-ylsulfonyl)piperazin-1-yl)phenyl)-2-propanol], the IC50 was 542 nM.
